In ChEMBL document CHEMBL1201862, “PubChem BioAssay data set” (2004):
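Test compounds were applied to cells in 96-well plates for 48 hours at 5 doses. Here, GI50 denotes the concentration required for 50% inhibition of growth.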 Calls of active or inactive are those of the source. No stated cut-off is given here; in the data, active = GI50 up to about 1.1 µM and inactive = higher.

Assays:
Test in all cases: growth of human tumour cells (NCI), 48 h
CAKI-1 = system: CAKI-1
DMS-273 = system: DMS-273
HCT-15 = system: HCT-15
KM12 = system: KM12
LXFL 529 = system: LXFL 529
M19-MEL = system: M19-MEL
Malme-3M = system: Malme-3M
RPMI-8226 = system: RPMI-8226
SK-MEL-5 = system: SK-MEL-5
SN12C = system: SN12C
SNB-19 = system: SNB-19
SR = system: SR
HOP-92 = system: HOP-92
RXF 393 = system: RXF 393
SNB-78 = system: SNB-78
Hs-578T = system: Hs-578T
MCF7 = system: MCF7
MDA-MB-231 = system: MDA-MB-231
MDA-N = system: MDA-N
NCI/ADR-RES = system: NCI/ADR-RES

CCOC(=O)CC(NC(=O)c1ccc(/N=N/N(C)C)cc1)C(=O)OCC (configuration not stated)
GI50 (CAKI-1): > 100 µM (inactive)
GI50 (DMS-273): > 100 µM (inactive)
GI50 (HCT-15): > 100 µM
GI50 (KM12): > 100 µM (inactive)
GI50 (LXFL 529): > 100 µM (inactive)
GI50 (M19-MEL): > 100 µM (inactive)
GI50 (Malme-3M): > 100 µM (inactive)
GI50 (RPMI-8226): > 100 µM (inactive)
GI50 (SK-MEL-5): > 100 µM (inactive)
GI50 (SN12C): > 100 µM (inactive)
GI50 (SNB-19): > 100 µM (inactive)
GI50 (SR): > 100 µM (inactive)

Nc1ccc(/C=C/c2ccnc3ccccc23)cc1
GI50 (CAKI-1): 21.9 µM (inactive)
GI50 (DMS-273): 18.1 µM (inactive)
GI50 (HCT-15): 21 µM
GI50 (HOP-92): 20.3 µM (inactive)
GI50 (KM12): 16.2 µM (inactive)
GI50 (LXFL 529): 19.7 µM (inactive)
GI50 (M19-MEL): 31 µM (inactive)
GI50 (Malme-3M): 30.3 µM (inactive)
GI50 (RPMI-8226): 15.6 µM (inactive)
GI50 (SK-MEL-5): 15.2 µM (inactive)
GI50 (SNB-19): 27.6 µM (inactive)
GI50 (SR): 2.84 µM (inactive)

O=C1OC(c2ccc(Cl)cc2)(c2ccc(Cl)cc2)c2c1ccc1ccccc21
GI50 (CAKI-1): > 100 µM (inactive)
GI50 (DMS-273): > 100 µM (inactive)
GI50 (HCT-15): > 100 µM
GI50 (KM12): > 100 µM (inactive)
GI50 (LXFL 529): > 100 µM (inactive)
GI50 (M19-MEL): > 100 µM (inactive)
GI50 (Malme-3M): > 100 µM (inactive)
GI50 (RPMI-8226): 5.94 µM (inactive)
GI50 (RXF 393): 20.9 µM (inactive)
GI50 (SK-MEL-5): 52.5 µM (inactive)
GI50 (SN12C): > 100 µM (inactive)
GI50 (SNB-19): > 100 µM (inactive)
GI50 (SNB-78): > 100 µM (inactive)

Cc1cc2c(C(C)C)c(O)c(O)c(/C=N/c3ccccc3)c2c(O)c1-c1c(C)cc2c(C(C)C)c(O)c(O)c(/C=N/c3ccccc3)c2c1O
GI50 (CAKI-1): > 100 µM (inactive)
GI50 (DMS-273): > 100 µM (inactive)
GI50 (HCT-15): > 100 µM
GI50 (HOP-92): > 100 µM (inactive)
GI50 (KM12): > 100 µM (inactive)
GI50 (LXFL 529): > 100 µM (inactive)
GI50 (M19-MEL): > 100 µM (inactive)
GI50 (Malme-3M): > 100 µM (inactive)
GI50 (RPMI-8226): > 100 µM (inactive)
GI50 (RXF 393): > 100 µM (inactive)
GI50 (SN12C): > 100 µM (inactive)
GI50 (SNB-19): > 100 µM (inactive)
GI50 (SR): > 100 µM (inactive)

COC(=O)c1cccc(C(=O)OC)c1
GI50 (CAKI-1): > 100 µM (inactive)
GI50 (DMS-273): > 100 µM (inactive)
GI50 (HCT-15): > 100 µM
GI50 (HOP-92): > 100 µM (inactive)
GI50 (KM12): > 100 µM (inactive)
GI50 (LXFL 529): > 100 µM (inactive)
GI50 (Malme-3M): > 100 µM (inactive)
GI50 (RPMI-8226): > 100 µM (inactive)
GI50 (RXF 393): > 100 µM (inactive)
GI50 (SN12C): > 100 µM (inactive)
GI50 (SNB-19): > 100 µM (inactive)
GI50 (SNB-78): > 100 µM (inactive)
GI50 (SR): > 100 µM (inactive)

CCOC(=O)NC(=O)c1cn(CCSCCOC(=O)NCCCCCCNC(=O)OCCSCCn2cc(C(=O)NC(=O)OCC)c(=O)[nH]c2=O)c(=O)[nH]c1=O
GI50 (CAKI-1): > 100 µM (inactive)
GI50 (DMS-273): > 100 µM (inactive)
GI50 (HCT-15): > 100 µM
GI50 (HOP-92): > 100 µM (inactive)
GI50 (M19-MEL): > 100 µM (inactive)
GI50 (Malme-3M): > 100 µM (inactive)
GI50 (RXF 393): > 100 µM (inactive)
GI50 (SK-MEL-5): > 100 µM (inactive)
GI50 (SN12C): > 100 µM (inactive)
GI50 (SNB-19): > 100 µM (inactive)
GI50 (SNB-78): > 100 µM (inactive)

CCOC1=C2N=C(Cc3ccc(F)cc3)NC2C(=O)c2ccccc21 (configuration not stated)
GI50 (DMS-273): 9.71 µM (inactive)
GI50 (HOP-92): 10.7 µM (inactive)
GI50 (KM12): 27.5 µM (inactive)
GI50 (LXFL 529): 25.5 µM (inactive)
GI50 (M19-MEL): 9.44 µM (inactive)
GI50 (Malme-3M): 11.5 µM (inactive)
GI50 (RPMI-8226): 11.6 µM (inactive)
GI50 (RXF 393): 18.3 µM (inactive)
GI50 (SNB-78): 69 µM (inactive)

COc1nc(N)nc2nc[nH]c12
GI50 (CAKI-1): 162 µM (inactive)
GI50 (DMS-273): 430 µM (inactive)
GI50 (HCT-15): 445 µM
GI50 (HOP-92): 235 µM (inactive)
GI50 (Hs-578T): 416 µM (inactive)
GI50 (KM12): > 500 µM (inactive)
GI50 (LXFL 529): > 800 µM (inactive)
GI50 (M19-MEL): > 500 µM (inactive)
GI50 (MCF7): 490 µM (inactive)
GI50 (MDA-MB-231): 444 µM (inactive)
GI50 (MDA-N): > 500 µM (inactive)
GI50 (Malme-3M): 290 µM (inactive)
GI50 (NCI/ADR-RES): > 500 µM (inactive)
GI50 (RPMI-8226): 417 µM (inactive)
GI50 (RXF 393): 313 µM (inactive)
GI50 (SK-MEL-5): > 500 µM (inactive)
GI50 (SN12C): 441 µM (inactive)
GI50 (SNB-19): > 500 µM (inactive)
GI50 (SNB-78): 287 µM (inactive)
GI50 (SR): 313 µM (inactive)

NC1(C(=O)O)CCc2ccc(N(CCCl)CCCl)cc2C1 (configuration not stated)
GI50 (DMS-273): 38.8 µM (inactive)
GI50 (HCT-15): > 100 µM
GI50 (HOP-92): > 100 µM (inactive)
GI50 (KM12): > 100 µM (inactive)
GI50 (M19-MEL): 85.5 µM (inactive)
GI50 (MCF7): 33.8 µM (inactive)
GI50 (Malme-3M): 1 µM (active)
GI50 (NCI/ADR-RES): > 100 µM (inactive)
GI50 (RPMI-8226): 84.3 µM (inactive)
GI50 (RXF 393): > 100 µM (inactive)
GI50 (SK-MEL-5): 57.3 µM (inactive)
GI50 (SN12C): 49.3 µM (inactive)
GI50 (SNB-19): > 100 µM (inactive)

C=CCNC1=C2C[C@@H](C)C[C@H](OC)[C@H](O)[C@@H](C)/C=C(\C)[C@H](OC(N)=O)[C@@H](OC)/C=C\C=C(/C)C(=O)NC(=CC1=O)C2=O [TANESPIMYCIN]
GI50 (CAKI-1): 1.29 µM (inactive)
GI50 (HCT-15): 0.204 µM
GI50 (HOP-92): 3.69 µM (inactive)
GI50 (Hs-578T): 0.575 µM (active)
GI50 (KM12): 0.0165 µM (active)
GI50 (MCF7): 0.0137 µM (active)
GI50 (MDA-MB-231): 1.11 µM (active)
GI50 (MDA-N): 0.0199 µM (active)
GI50 (Malme-3M): 0.0619 µM (active)
GI50 (NCI/ADR-RES): 5.69 µM (inactive)
GI50 (RPMI-8226): 0.0731 µM (active)
GI50 (RXF 393): 0.0813 µM (active)
GI50 (SK-MEL-5): 0.0259 µM (active)
GI50 (SN12C): 0.0308 µM (active)
GI50 (SNB-19): 0.525 µM (active)
GI50 (SR): 0.0158 µM (active)
